{
  "source": "paper PMC12071944",
  "about": "“Interaction Between Glucagon-like Peptide 1 and Its Analogs with Amyloid-β Peptide Affects Its Fibrillation and Cytotoxicity” (International Journal of Molecular Sciences, 2025)",
  "key": {"AD patients": {"tested_on": "AD patients", "settings": "cited from earlier work; for cognition and memory: patients with mild cognitive impairment and AD, ref [16]", "description": "Worldwide, approximately 416 million individuals are affected by AD dementia, prodromal AD, or preclinical AD, accounting for 22% of the population aged 50 years and older."}, "APP/PS1 AD mice": {"tested_on": "APP/PS1 AD mice", "settings": "ref [47],[48],[49]; cited from earlier work"}, "SH-SY5Y cells [1]": {"tested_on": "SH-SY5Y cells", "assay": "MTT assay, Aβ42 cytotoxicity toward SH-SY5Y cells", "settings": "48 h", "procedure": "(§1) GLP-1RAs were premixed with Aβ40/Aβ42 at an equimolar ratio in serum-free medium and added to the SH-SY5Y cells cultured in the same medium to a final concentration of both components of 10 µM. Staining with MTT was performed after incubation of the cells for 48 h.\n(§2) Mean values and standard deviations are indicated.\n(§3) Human neuroblastoma SH-SY5Y cells were cultured in DMEM-F12 medium supplemented with 1% penicillin-streptomycin-glutamine and 10% fetal bovine serum at 37 °C for 24 h in a humidified atmosphere with 5% CO2. Upon reaching 80% confluence, the cells were harvested and seeded into 96-well plates at a density of 15 × 10^5 cells per well in serum-free DMEM/F12 + PSG medium.\n(§4) The Aβ40/Aβ42 samples were dissolved in fresh 1% NH4OH at a concentration of 0.5 mg/mL, followed by freeze-drying.\nFreshly prepared Aβ40/Aβ42, GLP-1RAs, or their mixtures were added (100 µL per well) to the cultures 24 h after seeding to a final concentration of both components of 10 µM. The final volume of medium in the well was 200 µL. The MTT assay, designed to assess cellular metabolic activity, was performed after incubation of the cells for 48 h. MTT (0.005 mg/mL) was added and the cells were incubated for 3 h, followed by solubilization of the cells using DMSO. […] The resulting values were normalized relative to the control group of the untreated cells (100%). Data are presented as mean ± standard deviation (n = 5–10)."}, "SH-SY5Y cells [2]": {"tested_on": "SH-SY5Y cells", "assay": "MTT assay, Aβ (Aβ40/Aβ42) cytotoxicity toward SH-SY5Y cells", "settings": "10 µM Aβ40/Aβ42 and 10 µM GLP-1RA, 48 h, summary table", "procedure": "as §1, §2, §3, §4\n(§5) Freshly prepared Aβ40/Aβ42, GLP-1RAs, or their mixtures were added (100 µL per well) to the cultures 24 h after seeding to a final concentration of both components of 10 µM. The final volume of medium in the well was 200 µL. The MTT assay, designed to assess cellular metabolic activity, was performed after incubation of the cells for 48 h. MTT (0.005 mg/mL) was added and the cells were incubated for 3 h, followed by solubilization of the cells using DMSO. […] The resulting values were normalized relative to the control group of the untreated cells (100%). […]"}, "[3]": {"settings": "cited from earlier work"}, "serum albumin (HSA)": {"tested_on": "serum albumin (HSA)", "settings": "attached fatty acid chain; ref [44],[45]; cited from earlier work"}, "SH-SY5Y cells [4]": {"tested_on": "SH-SY5Y cells", "assay": "MTT assay, Aβ40 cytotoxicity toward SH-SY5Y cells", "settings": "48 h", "procedure": "as §1, §2, §3, §4, §5"}, "[5]": {"settings": "b29: plasma concentrations; ref [61],[62]; cited from earlier work"}, "[6]": {"tested_on": "Aβ levels in the mouse brain", "settings": "in vivo; ref [30]; cited from earlier work", "description": "The N-terminally truncated forms of GLP-1, GLP-1(7-36)/(7-37), secreted from intestinal L cells, control meal-related glycemic excursions by augmentation of insulin expression and secretion and inhibition of glucagon release (reviewed in [21]). Some population of neurons in the nucleus tractus solitarii of the brainstem can also express GLP-1 [22, 23]."}, "cultured neuronal cells": {"tested_on": "cultured neuronal cells", "settings": "ref [30], cited from earlier work"}, "Aβ40 fibrillation": {"tested_on": "Aβ40 fibrillation", "assay": "ThT fluorescence assay of Aβ40 fibrillation", "type": "biochemical, Human", "settings": "20 µM Aβ40, 10 µM GLP-1RA, 30 °C, pH 7.4", "experimental": "The influence of GLP-1RAs on Aβ40 fibril formation at 30 °C was studied using the ThT fluorescence assay at ThT and GLP-1RA concentrations of 10 μM for both components (Figure 4).\nStandard deviations of the fluorescence signals are indicated. Excitation wavelength of 440 nm.\nThe Aβ40 sample was prepared as described in ref. [82] with some modifications (~5 mM NaOH at pH 11.8, 0.5 mg/mL). […] The control curves (without Aβ40; Figure S1) were subtracted from the corresponding kinetic curves of Aβ40 samples with/without GLP-1RAs. Each measurement was performed in 2–10 repetitions. The mean fluorescence signal values for each experimental sample were normalized to the average fluorescence signal corresponding to the saturation phase of Aβ40 fibril formation without additives. Data are presented as mean ± standard deviation."}, "[7]": {"assay": "Dynamic light scattering, quaternary structure of GLP-1RAs", "type": "physicochemical", "settings": "DLS, 25 °C, pH 7.4", "experimental": "DLS measurements were carried out using a Zetasizer Nano ZS system (Malvern Instruments Ltd., Malvern, UK). The backscattered light from a 4 mW He-Ne laser at 632.8 nm was collected at an angle of 173°. […] The acquisition time for a single autocorrelation function was 100 s. The resulting autocorrelation functions were averaged values from three measurements. The volume-weighted size distributions were calculated using the following parameters for the buffer: the refractive index of 1.334 was measured using the RL3 refractometer (PZO, Warszawa, Poland); the viscosity value η = 0.95 mPa∙s was measured using a micro-rheology method with a water suspension of standard latex nanoparticles (NIST 3060A, Thermo Fisher Scientific, Waltham, MA, USA). The molecular mass and its standard deviation corresponding to the volume-weighted hydrodynamic radius MWRh distribution was calculated in approximation of a globular protein according to the equations from ref. [86]. The degree of multimerization was calculated as the MWRh/MWm ratio, where MWm is the molecular mass of the monomeric GLP-1RAs calculated from their molecular structure."}, "animal AD models": {"tested_on": "animal AD models", "settings": "ref [29]; cited from earlier work"}, "Aβ40 fibrils": {"tested_on": "Aβ40 fibrils", "assay": "Negative-staining TEM of Aβ40 fibrils", "type": "biochemical, Human", "experimental": "The scale bars represent 1 μm.\nA copper grid (300-mesh) coated with a 0.2% formvar film was placed on a 10 µL drop of the sample. […] Excess stain was removed using filter paper, and the grid was rinsed in deionized water for 1 min. The samples were analyzed using a JEM-1400Plus (HC) transmission electron microscope (JEOL, Ltd., Tokyo, Japan) at an accelerating voltage of 80 keV."}},
  "note": "Entries after “also recorded” stand apart in the source; their conditions may differ. Where two headings read alike, the source gives them in different places. Ends that are not written are not given here.",
  "data": [
    {"molecule": "insulin [intranasal insulin]", "values": [
      {"measurement": "cognition and memory", "setting": "AD patients", "value": "can improve cognition and memory"}
    ]},
    {"molecule": "CN(C)C(=N)N=C(N)N", "note": "[metformin]", "values": [
      {"measurement": "cognition and memory", "setting": "AD patients", "value": "can improve cognition and memory"}
    ]},
    {"molecule": "CCCCCCCCCCCCCCCC(=O)N[C@@H](CCC(=O)NCCCC[C@H](NC(=O)[C@H](C)NC(=O)[C@H](C)NC(=O)[C@H](CCC(N)=O)NC(=O)CNC(=O)[C@H](CCC(=O)O)NC(=O)[C@H](CC(C)C)NC(=O)[C@H](Cc1ccc(O)cc1)NC(=O)[C@H](CO)NC(=O)[C@H](CO)NC(=O)[C@@H](NC(=O)[C@H](CC(=O)O)NC(=O)[C@H](CO)NC(=O)[C@@H](NC(=O)[C@H](Cc1ccccc1)NC(=O)[C@@H](NC(=O)CNC(=O)[C@H](CCC(=O)O)NC(=O)[C@H](C)NC(=O)[C@@H](N)Cc1cnc[nH]1)[C@@H](C)O)[C@@H](C)O)C(C)C)C(=O)N[C@@H](CCC(=O)O)C(=O)N[C@@H](Cc1ccccc1)C(=O)N[C@H](C(=O)N[C@@H](C)C(=O)N[C@@H](Cc1c[nH]c2ccccc12)C(=O)N[C@@H](CC(C)C)C(=O)N[C@H](C(=O)N[C@@H](CCCNC(=N)N)C(=O)NCC(=O)N[C@@H](CCCNC(=N)N)C(=O)NCC(=O)O)C(C)C)[C@@H](C)CC)C(=O)O", "note": "[Lira, liraglutide]", "values": [
      {"measurement": "crosses the BBB", "setting": "APP/PS1 AD mice", "value": "crosses the BBB"},
      {"measurement": "effect on Aβ42 cytotoxicity", "setting": "SH-SY5Y cells [1]; 10 µM Aβ42 + 10 µM GLP-1RA, serum-free medium", "value": "abolished this effect; also recorded: most pronounced increase in the viability of SH-SY5Y cells"},
      {"measurement": "Effect on Aβ Cytotoxicity to SH-SY5Y Cells (Figure 7)", "setting": "SH-SY5Y cells [2]", "value": "Protection"},
      {"measurement": "ability to cross the BBB", "setting": "[3]; conclusions, ref Table 4", "value": "possessed"},
      {"measurement": "binding to serum albumin / clearance", "setting": "serum albumin (HSA)", "value": "favors binding to serum albumin, thereby slowing the clearance of Lira"},
      {"measurement": "effect on Aβ40 cytotoxicity", "setting": "SH-SY5Y cells [4]; 10 µM Aβ40 + 10 µM GLP-1RA, serum-free medium", "value": "abolished this effect"},
      {"measurement": "peak plasma concentrations", "setting": "[5]", "value": "20 to 120", "unit": "nM"}
    ]},
    {"molecule": "GLP-1(7-36): N-terminally truncated form of glucagon-like peptide 1, residues 7-36 (HAEGTFTSDVSSYLEGQAAKEFIAWLVKGR; ends and bridges not checked; UniProt P01275 98-127, looked up)", "values": [
      {"measurement": "Aβ levels in the mouse brain", "setting": "[6]", "value": "reduce Aβ levels in the mouse brain in vivo"},
      {"measurement": "protection against Aβ/iron-induced death", "setting": "cultured neuronal cells; cultured hippocampal neurons", "value": "protects cultured hippocampal neurons against Aβ/iron-induced death"},
      {"measurement": "levels of APP", "setting": "cultured neuronal cells; cultured neuronal cells", "value": "decrease levels of APP in cultured neuronal cells"}
    ]},
    {"molecule": "donanemab", "values": [
      {"measurement": "side effects", "setting": "AD patients; human, in vivo", "value": "brain edema and microhemorrhages"}
    ]},
    {"molecule": "amyloid-β peptide, residues 1-42 [Aβ42]", "values": [
      {"measurement": "decrease in cell survival", "setting": "SH-SY5Y cells [1]; 10 µM Aβ42 alone, n = 5–10", "value": 37, "unit": "%"}
    ]},
    {"molecule": "CC[C@H](C)[C@H](NC(=O)[C@H](Cc1ccccc1)NC(=O)[C@H](CCC(=O)O)NC(=O)[C@H](CCCCN)NC(=O)[C@H](C)NC(=O)[C@H](C)NC(=O)[C@H](CCC(N)=O)NC(=O)CNC(=O)[C@H](CCC(=O)O)NC(=O)[C@H](CC(C)C)NC(=O)[C@H](Cc1ccc(O)cc1)NC(=O)[C@H](CO)NC(=O)[C@H](CO)NC(=O)[C@@H](NC(=O)[C@H](CC(=O)O)NC(=O)[C@H](CO)NC(=O)[C@@H](NC(=O)[C@H](Cc1ccccc1)NC(=O)[C@@H](NC(=O)CNC(=O)[C@H](CCC(=O)O)NC(=O)[C@H](C)NC(=O)[C@@H](N)Cc1c[nH]cn1)[C@@H](C)O)[C@@H](C)O)C(C)C)C(=O)N[C@@H](C)C(=O)N[C@@H](Cc1c[nH]c2ccccc12)C(=O)N[C@@H](CC(C)C)C(=O)N[C@H](C(=O)N[C@@H](CCCCN)C(=O)NCC(=O)N[C@@H](CCCNC(=N)N)C(=O)NCC(=O)O)C(C)C", "note": "[GLP-1(7-37)]", "values": [
      {"measurement": "Effect on Aβ40 Fibrillation (Figure 4 and Figure 5)", "setting": "Aβ40 fibrillation; ThT assay and TEM, summary table", "value": "Inhibition"},
      {"measurement": "effect on Aβ40 fibrillation", "setting": "Aβ40 fibrillation; ThT assay, 10 μM ThT, 25 mM Tris-HCl, 140 mM NaCl, ex 440/em 485 nm, 2–10 repetitions", "value": "inhibit Aβ40 fibrillation; also recorded: suppressed Aβ40 fibrillation; also recorded: suppression of Aβ40 fibrillation"},
      {"measurement": "ability to cross the BBB", "setting": "[3]; in vivo", "value": "possessed"},
      {"measurement": "oligomerization, in words", "setting": "[7]", "value": "strong oligomerization"},
      {"measurement": "molecular mass from Rh (MWRh)", "setting": "[7]; 5–83 µM, globular protein approximation", "value": ">7 × 10^5 kDa"},
      {"measurement": "AD Animal Data: learning and memory", "setting": "animal AD models", "value": "Positive effects on learning and memory [29]"}
    ]},
    {"molecule": "glucagon-like peptide 1 [GLP-1]", "values": [
      {"measurement": "appearance of Aβ40 fibrils by TEM", "setting": "Aβ40 fibrils; after ThT assay, 20 µM Aβ40 with 10 μM GLP-1RA, 1% uranyl acetate", "value": "sporadic small fibril clusters were still observed"}
    ]},
    {"molecule": "amyloid-β peptide, residues 1-40 [Aβ40]", "values": [
      {"measurement": "fibril length", "setting": "Aβ40 fibrils; printed as \"up to\", Aβ40 with 10 μM GLP-1RA", "value": "up to 2 µm"},
      {"measurement": "decrease in cell survival", "setting": "SH-SY5Y cells [4]; 10 µM Aβ40 alone, n = 5–10", "value": 22, "unit": "%"}
    ]}
  ]
}
